Data from EP3720857B1, “2-OXO-5H-CHROMENO[4,3-B]PYRIDINES FOR USE IN THE TREATMENT OF HEPATITIS B” (Galapagos NV, priority 2017, dated 2019).

System: hepatitis virus B (HBV) infection
Assay: HepG2 NTCP assay (HBcAg staining as marker of HBV infection)
Assay type: cell-based
Details: HepG2-NTCP cells infected with HBV, HBV core antigen (HBcAg) as marker of infection
From the text: The principle of the hepG2-NTCP assay is to measure the effect of a test compound on the inhibition of the hepatitis virus B (HBV) infection compared to a reference compound. To be able to infect the hepatocellular carcinoma cells (HepG2) with HBV, HepG2 cells were stably transfected with the Na+-taurocholate co-transporting polypeptide (NTCP) receptor, also referred to as Sodium/bile acid cotransporter (SLC10A1), which is necessary for HBV infection. In this assay the HBV core antigen (HBcAg) is used as a marker of HBV infection. Nuclei count is used as an indication for compound toxicity.
On day one, HepG2-NTCP cells ((Ni et al., 2014)) are seeded at 5000 cells in 50 µL per well in assay medium (DMEM high glucose supplemented with 10% non-heat inactivated (non HI) fetal bovine serum (FBS), 1% P/S, 1% L-glutamine and 1% MEM NEAA) in 384 well plate and incubated at 37°C, 5% CO2 overnight.
Compounds are prepared as 10 point serial dilutions using 1/3 dilution steps in 100% DMSO starting from 10 mM highest concentration, unless otherwise requested for very potent compounds, which started from 5mM or 1mM stock. Compounds are further diluted 1/500 in assay medium.
A negative control (vehicle: 24 wells with 0.2% DMSO) and positive control (24 wells with 100nM Myrcludex B (Cas no.: 406461-66-3), 0.2% DMSO and in 10 point DR) are included in the experiments.
On the second day, 40µl medium is removed from the cells with the plate washer (Select 405 microplate washer, Biotek). 15 µL of diluted compound series is transferred to the assay plate and cells are infected with 15 µL of HBV mix (HBV virus, 4%PEG, 1%DMSO in assay medium). The infection is performed in assay medium containing final concentration of 1% DMSO. The assay plate is incubated at 37°C, 5% CO2 overnight.
The next day, 30µl compound and HBV mix are removed from the assay plate with the plate washer and 30 µL of compound series diluted 1/500 in assay medium containing final concentration of 2.5% DMSO is added to the cell assay plate. The assay plate is incubated at 37°C, 5% CO2 for 5 days.
After 5 days of incubation, supernatant is removed from the cells with the plate washer. Cells are fixed with 50 µL of 3.7% formaldehyde added with the Well mate (Matrix technologies) and incubated for 30 min at room temperature. After fixation, cells are washed four times with phosphate buffer saline (1xPBS, 137mM NaCl, 10mM na2HPO4, 2.7mM KCl, 1.8mM KH2PO4 at pH7.4). The cells are finally subjected to HBc staining.
First, the assay plate is blocked with blocking buffer (2%FBS, 3% BSA, 0.2% TritonX100 in PBS) for 1 h at room temperature (optional to block overnight at 4°C).
After 4 washes of PBST (1XPBS + 0.05% Tween) with the plate washer, the assay plate is incubated with 30 µL diluted primary antibody (1/700 Rabbit anti-HBV core antigen, Dako, B0586 or 1/350 Rabbit anti HBV core antigen, Invitrogen, PA516368) in blocking buffer and incubated for 90 min at room temperature.
After 4 washes of PBST with the plate washer, the assay plate is incubated with 50 µL of secondary antibody (Donkey-anti-rabbit Alexa 488 antibody, Lifetechnologies A21206) 1/500 diluted in blocking buffer and incubated for 60 min at room temperature and in the dark.
The assay plate is washed 4 times with PBST on the plate washer and incubated with 50µL of DAPI (Sigma D9542, stock 5mg/mL) 1/10000 diluted in PBS for 15-30 min at room temperature and in the dark. The assay plate is now ready for read out on the InCell Analyzer 2200 (GE Healthcare).
Raw data are generated following read-out performed on InCell 2200 and are imported into the galapagos LIMS for automated calculation of percentage inhibition (PIN) and toxicity by nuclei count, using the control wells mentioned above, and creation of Dose Response curves. Table V. Hepg2 NTCP assay activity of illustrative compounds of the invention

SMILES | IC50
COCCCOc1cc2c(cc1Cl)-c1c(cc(C(=O)O)c(=O)n1C1CC1)C(C(C)C)O2 (centres unmarked) [Compound 4, 9-chloro-1-cyclopropyl-5-isopropyl-8-(3-methoxypropoxy) -2-oxo-5H-chromeno[4,3-b]pyridine-3-carboxylic acid] | 0.001 to 1 nM
COc1cc2c(cc1OC(C)C)OC(C(C)C)c1cc(C(=O)O)c(=O)n(C3CC3)c1-2 (centres unmarked) [Compound 39, 1-cyclopropyl-8-isopropoxy-5-isopropyl-9-methoxy-2-oxo-5H-chromeno[4,3-b]pyridine-3-carboxylic acid] | 1 to 20 nM
CC1(C2Oc3cc(OC(F)F)c(Cl)cc3-c3c2cc(C(=O)O)c(=O)n3C2CC2)COC1 (centres unmarked) [Compound 70, 9-chloro-1-cyclopropyl-8-(difluoromethoxy)-5-(3-methyloxetan-3-yl)-2-oxo-5H-chromeno[4,3-b]pyridine-3-carboxylic acid] | 1 to 20 nM
COc1cc2c(cc1OCCCO)OC(C(C)C)c1cc(C(=O)O)c(=O)n(C3CC3)c1-2 (centres unmarked) [Compound 36, 1-cyclopropyl-8-(3-hydroxypropoxy) -5-isopropyl-9-methoxy-2-oxo-5H-chromeno[4,3-b]pyridine-3-carboxylic acid] | 1 to 20 nM
COCCOc1cc2c(cc1OC)-c1c(cc(C(=O)O)c(=O)n1C1CC1)C(C(C)C)O2 (centres unmarked) [Compound 31, 1-cyclopropyl-5-isopropyl-9-methoxy-8-(2-methoxyethoxy)-2-oxo-5H-chromeno[4,3-b]pyridine-3-carboxylic acid] | 1 to 20 nM
CCOc1cc2c(cc1OC)-c1c(cc(C(=O)O)c(=O)n1C1CC1)C(C(C)C)O2 (centres unmarked) [Compound 37, 1-cyclopropyl-8-ethoxy-5-isopropyl-9-methoxy-2-oxo-5H-chromeno[4,3-b]pyridine-3-carboxylic acid] | 1 to 20 nM
COc1cc2c(cc1OCC1COCCO1)OC(C(C)C)c1cc(C(=O)O)c(=O)n(C3CC3)c1-2 (centres unmarked) [Compound 33, 1-cyclopropyl-8-(1,4-dioxan-2-ylmethoxy)-5-isopropyl-9-methoxy-2-oxo-5H-chromeno[4,3-b]pyridine-3-carboxylic acid] | 1 to 20 nM
COc1cc2c(cc1OC)-c1c(cc(C(=O)O)c(=O)n1C1CC1)C(C(C)(C)C)O2 (centres unmarked) [Compound 9, 5-tert-butyl-1-cyclopropyl-8,9-dimethoxy-2-oxo-5H-chromeno[4,3-b]pyridine-3-carboxylic acid] | 1 to 20 nM
COc1cc2c(cc1OC)-c1c(cc(C(=O)O)c(=O)n1C1CC1)C(CO)O2 (centres unmarked) [Compound 18, 1-cyclopropyl-5-(hydroxymethyl)-8,9-dimethoxy-2-oxo-5H-chromeno[4,3-b]pyridine-3-carboxylic acid] | 20 to 100 nM
COCCCOc1cc2c(cc1F)-c1c(cc(C(=O)O)c(=O)n1C1CCC1)C(C1(C)COC1)O2 (centres unmarked) [Compound 26, 1-cyclobutyl-9-fluoro-8-(3-methoxypropoxy) -5-(3-methyloxetan-3-yl)-2-oxo-5H-chromeno[4,3-b]pyridine-3-carboxylic acid] | 0.001 to 1 nM
COCCOc1cc2c(cc1Cl)-c1c(cc(C(=O)O)c(=O)n1C1CC1)C(C1(C)COC1)O2 (centres unmarked) [Compound 25, 9-chloro-1-cyclopropyl-8-(2-methoxyethoxy)-5-(3-methyloxetan-3-yl)-2-oxo-5H-chromeno [4,3-b]pyridine-3-carboxylic acid] | 0.001 to 1 nM
COCCCOc1cc2c(cc1Br)-c1c(cc(C(=O)O)c(=O)n1C1CC1)C(C(C)C)O2 (centres unmarked) [Compound 71, 9-bromo-1-cyclopropyl-5-isopropyl-8-(3-methoxypropoxy) -2-oxo-5H-chromeno[4,3-b]pyridine-3-carboxylic acid] | 0.001 to 1 nM
CCC1Oc2cc(OCCCOC)c(OC)cc2-c2c1cc(C(=O)O)c(=O)n2C1CC1 (centres unmarked) [Compound 12, 1-cyclopropyl-5-ethyl-9-methoxy-8-(3-methoxypropoxy) -2-oxo-5H-chromeno[4,3-b]pyridine-3-carboxylic acid] | 1 to 20 nM
CC1(C2Oc3cc(OCC4CN(S(C)(=O)=O)C4)c(Cl)cc3-c3c2cc(C(=O)O)c(=O)n3C2CC2)COC1 (centres unmarked) [Compound 72, 9-chloro-1-cyclopropyl-5-(3-methyloxetan-3-yl)-8-[(1-methylsulfonylazetidin-3-yl)methoxy]-2-oxo-5H-chromeno[4,3-b]pyridine-3-carboxylic acid] | 1 to 20 nM
CC(C)C1Oc2cc(OCC3COC3)c(Cl)cc2-c2c1cc(C(=O)O)c(=O)n2C1CC1 (centres unmarked) [Compound 5, 9-chloro-1-cyclopropyl-5-isopropyl-8-(oxetan-3-ylmethoxy)-2-oxo-5H-chromeno[4,3-b]pyridine-3-carboxylic acid] | 0.001 to 1 nM

System: hepatitis virus B (HBV) infection
Assay: iCell hepatocytes assay, delayed assay (compounds added three days after HBV infection)
Assay type: cell-based
Details: not given
Experimental: The principle of the iCell hepatocyte 2.0 96 well assay is to evaluate the inhibitory effect of a test compound on hepatitis virus B (HBV) infection. In this assays the HBV core antigen (HBcAg) and/or extracellular antigen (HBeAg) and/or surface antigen (HBsAg) are used as a marker for HBV infection. Nuclei count may be used as an indication for compound toxicity.
In the standard assay set-up HBV infection and compound addition are performed on the same day, in the delayed assay the compounds are added three days after HBV infection. iCell hepatocytes 2.0 are human hepatocytes derived from induced pluripotent stem cells (iPSc) purchased from Cellular Dynamics international (CDI, R1027).
At day 0, iCell hepatocytes 2.0 (CDI, R1027) are thawed and seeded in collagen I coated 96well plates at 112 000c/well (100µL) in plating medium (RPMI supplemented with B27 supplement, 20 ng/mL recombinant human oncostatin M (OSM), 25µg/mL gentamicin, 0.1µM Dexamethasone and iCell medium supplement provided by CDI). Plates are incubated at 37°C, 5% CO2 and daily refreshed with plating medium for the following four days.
On day 5 and 6, plates are refreshed with 100µL maintenance medium (RPMI supplemented with B27 supplement, 25µg/mL gentamicin, 0.1µM Dexamethasone, and iCell medium supplement provided by CDI) and incubated at 37°C, 5% CO2 until the following day.
On day 7 (day of infection), the maintenance medium is removed from the assay plates and cells are infected with 50 µL of HBV mix (HBV virus, 4% PEG, 0% or 2% DMSO in maintenance medium). The assay plates were incubated overnight at 37°C, 5% CO2.
At day 1 post infection (day8), 50µL of HBV mix is removed from the assay plates and refreshed with 100 µL of maintenance medium. The assay plates are incubated at 37°C, 5% CO2 for three days.
At day 4 post infection (day 11) and day 7 post infection (day14), the supernatant is removed and 100 µL of compound series diluted 1/500 in maintenance medium is added to the assay plates (8 point serial dilution using 1/3 dilution steps in 100% DMSO or 8 point serial dilution using ¼ dilution steps, normalized for 0.2% DMSO. The assay plates were incubated at 37°C, 5% CO2 for three days.
At day 10 post infection (day 17), 100µL of supernatant is harvested and frozen to -20°C. The cells are fixed with 50 µL of 3.7% formaldehyde and incubated for 30 min at room temperature. After fixation, cells are washed four times with phosphate buffer saline (PBS) with the plate washer (Select 405, microplate washer, Biotek) and subjected to HBc staining. harvested supernatant is used for HBe and/or HBs ELISA.
The assay plates are blocked with blocking buffer (2% FBS, 3% BSA, 0.2% TritonX100 in PBS) for 1 h at room temperature.
After blocking, the assay plates are tapped manually and incubated with 50 µL diluted primary antibody (1/700 Rabbit-anti-HBc Ag, Dako, B0586 or 1/350 Rabbit-anti-HBc Ag, Invitrogen, PA516368) in blocking buffer and incubated for 90 min at room temperature.
After 4 washes of PBST (1XPBS + 0.05% Tween) with the plate washer, the assay plates are incubated with 100 µL of secondary antibody (Donkey-anti-rabbit Alexa 488, Lifetechnologies, A21206) 1/500 diluted in blocking buffer and incubated for 60 min at room temperature in the dark, then washed 4 times with PBST on the plate washer and incubated with 100µL of DAPI (Sigma D9542, stock 5mg/mL) 1/10000 diluted in PBS for 15-30 min at room temperature in the dark.
Finally, the assay plates are read out on a InCell Analyzer 2200 (GE Healthcare). […]
After blocking, 30 µL of sample and HBe Ag standard (recombinant hepatitis B virus E antigen protein, 4mg/mL, Abcam, ab91273) are added to the plate. The HBe Ag standard is 1/3 diluted in blocking buffer starting from 1.25µg/mL. A vehicle control is also included. The plate is incubated for 30 min at room temperature.
After sample incubation, the plates are washed 4 times with PBST on a platewasher followed by 2 washed of PBS. […]

SMILES | Delayed assay HBs ELISA % inhibition
COCCCOc1cc2c(cc1Cl)-c1c(cc(C(=O)O)c(=O)n1C1CC1)C(C(C)C)O2 (centres unmarked) [Compound 4, 9-chloro-1-cyclopropyl-5-isopropyl-8-(3-methoxypropoxy) -2-oxo-5H-chromeno[4,3-b]pyridine-3-carboxylic acid] | ++ (50-75%)

Same assay, conditions: Hepatitis B virus, Hepatocyte, HBs ELISA

SMILES | EC50
COCCCOc1cc2c(cc1Cl)-c1c(cc(C(=O)O)c(=O)n1C1CC1)C(C(C)C)O2 (centres unmarked) [Compound 4, 9-chloro-1-cyclopropyl-5-isopropyl-8-(3-methoxypropoxy) -2-oxo-5H-chromeno[4,3-b]pyridine-3-carboxylic acid] | 0.001 to 20 nM
